The values that follow come from US9669031B2, “MNK inhibitors and methods related thereto” (eFFECTOR Therapeutics, Inc., priority 2014, dated 2017).

A short description of series [1]: in vivo. The following applies: Balb/c, mouse, po, 10 mg/kg; for half-life: T½; for AUC(0-t): AUClast.
For series [2] the following is noted: Balb/c, mouse, in vivo, po, 10 mg/kg.
Series [3] can be described thus: Pharmacokinetics in Balb/c mice, single intravenous bolus administration. Type of series: in vivo. The following applies: intravenous bolus 1 mg/kg, gender F; for AUC(0-inf) / half-life / Vd: female, mouse, plasma; for AUC(0-inf): read-out: AUCINF_obs; for half-life: read-out: T½ (converted); for Vd: read-out: Vss.
[4] abbreviates: formulation 10DMA/15EtOH/35PEG300/40D5W.
[5] abbreviates: formulation 10DMI/15EtOH/35PG/40Saline.

Read-outs that look alike come from different tables or passages of the source.

The Cmax is the maximum level reached in the sampled fluid or tissue. What is called Tmax is the time at which the peak concentration occurs. As for `Cl.O=C1NC2(CCC(F)(F)CC2)n2c1c(Cl)cc(Nc1ccncn1)c2=O` [Cpd. No. 110, 8-chloro-4′,4′-difluoro-6-(pyrimidin-4-ylamino)spiro[2H-imidazo[1,5-a]pyridine-3,1′-cyclohexane]-1,5-dione hydrochloride], in series [1] (female), the Cmax was 1700 ng/mL, the Tmax was 0.3 h and the half-life was 2.6 h.

The AUC(0-t) is the area under the concentration-time curve up to a stated or last time point. Low readings indicate less exposure, high ones more exposure. In turn, `Cc1cc(Nc2cc(N)ncn2)c(=O)n2c1C(=O)NC21CCCCC1` [Cpd. No. 107, 6′-((6-aminopyrimidin-4-yl)amino)-8′-methyl-2′H-spiro[cyclohexane-1,3′-imidazo[1,5-a]pyridine]-1′,5′-dione] showed a Tlast in series [2] (female) of 8 h. In series [1] (female), the AUC(0-t) amounted to 2760 ng·h/mL, the Cmax was determined as 950 ng/mL, the Tmax amounted to 1 h and the half-life was 5.3 h. Besides, in series [3] (setting [4]), the AUC(0-inf) amounted to 502 ng·h/mL, the half-life is 2.91 h, the Vd is 3.21 L/kg and the Cl_obs is given as 33.2 mL/min/kg.

For the compound `Cc1cc(Nc2cc(N)ncn2)c(=O)n2c1C(=O)NC21CCCC1.Cl` [Cpd. No. 98, 6-[(6-aminopyrimidin-4-yl)amino]-8-methyl-spiro[2H-imidazo[1,5-a]pyridine-3,1′-cyclopentane]-1,5-dione hydrochloride], the Tlast in series [2] (female) came to 8 h. Moreover, in series [1] (female), the AUC(0-t) was 4180 ng·h/mL, the Cmax was 1200 ng/mL, the Tmax turned out to be 0.3 h and the half-life is 3.1 h. Further, in series [3] (setting [4]), the AUC(0-inf) was 358 ng·h/mL, the half-life is 1.79 h, the Vd was determined as 3.56 L/kg and the Cl_obs was 46.6 mL/min/kg.

Consider `Cl.O=C1NC2(CCCCC2)n2c1c(Cl)cc(Nc1ccncn1)c2=O` [Cpd. No. 109, 8-chloro-6-(pyrimidin-4-ylamino)spiro[2H-imidazo[1,5-a]pyridine-3,1′-cyclohexane]-1,5-dione hydrochloride], for which, in series [1] (female), the concentration peaked (Cmax) at 630 ng/mL, the Tmax amounted to 0.3 h and the half-life was 2.5 h.

Compound `CC1(CC(F)(F)F)NC(=O)c2ccc(Nc3cc(NC(=O)C4CC4)ncn3)c(=O)n21` (stereo not shown) [Cpd. No. 22, N-(6-((3-methyl-1,5-dioxo-3-(2,2,2-trifluoroethyl)-1,2,3,5-tetrahydroimidazo[1,5-a]pyridin-6-yl)amino)pyrimidin-4-yl)cyclopropanecarboxamide] showed a Tlast in series [2] (female) of 8 h. In series [1] (female), the AUC(0-t) came to 1620 ng·h/mL, the Cmax was determined as 371 ng/mL, the Tmax was 2 h and the half-life was 1.93 h.

In series [2] (female), `O=C1NC2(CCCNC2)n2c1ccc(Nc1ccncn1)c2=O` (stereo not shown) [Cpd. No. 20, 6-(pyrimidin-4-ylamino)-1H-spiro[imidazo[1,5-a]pyridine-3,3′-piperidine]-1,5(2H)-dione] displayed a Tlast of 4 h. Also, in series [1] (female), the AUC(0-t) was 2090 ng·h/mL, the peak level (Cmax) was 2240 ng/mL, the time of peak concentration (Tmax) turned out to be 0.5 h and the half-life is 0.643 h.

As for `O=C1NC2(CCC(F)(F)CC2)n2c1c(Cl)cc(Nc1cc(NC(=O)C3CC3)ncn1)c2=O` [Cpd. No. 50, N-[6-[(8-chloro-4′,4′-difluoro-1,5-dioxo-spiro[2H-imidazo[1,5-a]pyridine-3,1′-cyclohexane]-6-yl)amino]pyrimidin-4-yl]cyclopropanecarboxamide], the Tlast in series [2] (female) is listed as 24 h. Besides, the Tmax in series [1] (female) amounted to 4 h. Besides, in series [3] (setting [5]), the AUC(0-inf) came to 887 ng·h/mL, the half-life is 2.47 h, the Vd amounted to 3.18 L/kg and the Cl_obs is reported as 18.8 mL/min/kg.

`O=C1NC2(CCCCC2)n2c1c(Cl)cc(Nc1cc(NC(=O)C3CC3)ncn1)c2=O` [Cpd. No. 45, N-(6-((8′-chloro-1′,5′-dioxo-1′,5′-dihydro-2′H-spiro[cyclohexane-1,3′-imidazo[1,5-a]pyridin]-6′-yl)amino)pyrimidin-4-yl)cyclopropanecarboxamide]: the Tlast in series [2] (female) was determined as 8 h. In series [1] (female), the AUC(0-t) amounted to 42.9 ng·h/mL, the highest level (Cmax) was 9.16 ng/mL, the Tmax stood at 2 h and the half-life is 7.55 h.

In the case of `CC1(c2cccc(F)c2)NC(=O)c2c(Cl)cc(Nc3cc(NC(=O)C4CC4)ncn3)c(=O)n21` (stereo not shown) [Cpd. No. 52, N-[6-[[8-chloro-3-(3-fluorophenyl)-3-methyl-1,5-dioxo-2H-imidazo[1,5-a]pyridin-6-yl]amino]pyrimidin-4-yl]cyclopropanecarboxamide], in series [2] (female), the AUClast was determined as 22300 ng·h/mL, the Tlast stood at 24 h and the T½ stood at 3.56 h. In series [1] (female), this compound showed an AUC(0-t) of 38100 ng·h/mL, a Cmax of 3370 ng/mL and a half-life of 5.41 h.

`CC1(C)NC(=O)c2c(Cl)cc(Nc3cc(NC(=O)C4CC4)ncn3)c(=O)n21` [Cpd. No. 43, N-[6-[(8-chloro-3,3-dimethyl-1,5-dioxo-2H-imidazo[1,5-a]pyridin-6-yl)amino]pyrimidin-4-yl]cyclopropanecarboxamide] registered a Tlast in series [2] (female) of 8 h. In addition, in series [1] (female), the AUC(0-t) is 132 ng·h/mL, the concentration peaked (Cmax) at 21.8 ng/mL, the Tmax came to 2 h and the half-life is 6.75 h.

For the compound `CC1(C2CCCC2)NC(=O)c2ccc(Nc3cc(NC(=O)C4CC4)ncn3)c(=O)n21` (stereo not shown) [Cpd. No. 23, N-[6-[(3-cyclopentyl-3-methyl-1,5-dioxo-2H-imidazo[1,5-a]pyridin-6-yl)amino]pyrimidin-4-yl]cyclopropanecarboxamide], the Tlast in series [2] (female) stood at 8 h. In series [1] (female), the AUC(0-t) came to 75.7 ng·h/mL, the Cmax worked out at 17.5 ng/mL, the Tmax is 1 h and the half-life was 3.49 h.

On to `CC1(C2CCCC2)NC(=O)c2ccc(Nc3ccncn3)c(=O)n21` (stereo not shown) [Cpd. No. 9, 3-cyclopentyl-3-methyl-6-(pyrimidin-4-ylamino)-2,3-dihydroimidazo[1,5-a]pyridine-1,5-dione], for which the Tlast in series [2] (male) came to 8 h. In series [1] (male), the AUC(0-t) was 4830 ng·h/mL, the highest level (Cmax) was 5050 ng/mL, the Tmax was 0.5 h and the half-life is 0.831 h.

`O=C1NC2(CCCC2)n2c1ccc(Nc1cc(NC(=O)C3CC3)ncn1)c2=O` [Cpd. No. 21, N-[6-[(1,5-dioxospiro[2H-imidazo[1,5-a]pyridine-3,1′-cyclopentane]-6-yl)amino]pyrimidin-4-yl]cyclopropanecarboxamide] registered a Tlast in series [2] (female) of 4 h. In series [1] (female), the AUC(0-t) was 109 ng·h/mL, the Cmax was found to be 50.2 ng/mL, the Tmax came to 0.5 h and the half-life is 2.66 h.

For `Cl.O=C1NC2(CCCNC2)n2c1c(Cl)cc(Nc1ccncn1)c2=O` (stereo not shown) [Cpd. No. 54, 8-chloro-6-(pyrimidin-4-ylamino)spiro[2H-imidazo[1,5-a]pyridine-3,3′-piperidine]-1,5-dione hydrochloride], in series [1] (female), the peak level (Cmax) was 1050 ng/mL and the time to peak (Tmax) was 0.5 h.

In series [2] (female), `CC1(CC(F)(F)F)NC(=O)c2c(Cl)cc(Nc3ccncn3)c(=O)n21` (stereo not shown) [Cpd. No. 55, 8-chloro-3-methyl-6-(pyrimidin-4-ylamino)-3-(2,2,2-trifluoroethyl)-2H-imidazo[1,5-a]pyridine-1,5-dione] gave a Tlast of 24 h. Moreover, in series [1] (female), the area under the curve AUC(0-t) worked out at 56900 ng·h/mL, the Cmax was determined as 6170 ng/mL, the Tmax turned out to be 1 h and the half-life was 2.61 h.

In the case of `CC1(C(F)(F)F)NC(=O)c2c(Cl)cc(Nc3ccncn3)c(=O)n21` (stereo not shown) [Cpd. No. 35, 8-chloro-3-methyl-6-(pyrimidin-4-ylamino)-3-(trifluoromethyl)-2H-imidazo[1,5-a]pyridine-1,5-dione], the Tlast in series [2] (female) was found to be 24 h. In addition, in series [1] (female), the AUC(0-t) is 71300 ng·h/mL, the concentration peaked (Cmax) at 6930 ng/mL, the Tmax was found to be 2 h and the half-life was 3.46 h.

As for `CC1(C(F)(F)F)NC(=O)c2ccc(Nc3ccncn3)c(=O)n21` (stereo not shown) [Cpd. No. 14, 3-methyl-6-(pyrimidin-4-ylamino)-3-(trifluoromethyl)-2,3-dihydroimidazo[1,5-a]pyridine-1,5-dione], the Tlast in series [2] (male) was found to be 8 h. In series [1] (male), the AUC(0-t) amounted to 255 ng·h/mL, the Cmax worked out at 405 ng/mL and the Tmax was 0.5 h.

The compound `CC1(C(F)(F)F)NC(=O)c2ccc(Nc3cc(NC(=O)C4CC4)ncn3)c(=O)n21` (stereo not shown) [Cpd. No. 24, N-[6-[[3-methyl-1,5-dioxo-3-(trifluoromethyl)-2H-imidazo[1,5-a]pyridin-6-yl]amino]pyrimidin-4-yl]cyclopropanecarboxamide] showed a Tlast in series [2] (female) of 8 h. In series [1] (female), the AUC(0-t) worked out at 921 ng·h/mL, the highest level (Cmax) was 192 ng/mL, the Tmax came to 2 h and the half-life was 1.91 h.

For the compound `CC1(c2cccc(Cl)c2)NC(=O)c2c(Cl)cc(Nc3ccncn3)c(=O)n21` (stereo not shown) [Cpd. No. 58, 8-chloro-3-(3-chlorophenyl)-3-methyl-6-(pyrimidin-4-ylamino)-2H-imidazo[1,5-a]pyridine-1,5-dione], in series [2] (female), the Tlast turned out to be 24 h. Moreover, in series [1] (female), the AUC(0-t) was 5430 ng·h/mL, the peak level (Cmax) was 690 ng/mL, the Tmax came out at 2 h and the half-life is 5.32 h.
